Test results published in patent EP4678638A1, “NEW E3 UBIQUITIN LIGASE LIGAND, PROTEIN DEGRADATION AGENT AND USE THEREOF” (priority 2023, dated 2024).

Columns and labels:
MM.1S = assay: CCK-8 proliferation, MM.1S; assay type: cell-based; settings: Homo sapiens, MM1.S; Table B6, compounds designed based on the ALK inhibitors; MM.1S cells; read-out: Inhibitory activity (IC50, nM) on tumor cell proliferation, MM.1S
Method in brief: (§1)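 Tumor cells were cultured at 37°C with 5% CO2, seeded, and after 24h treated with compounds at 10 concentrations starting at 10µM (5-fold serial dilutions).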

SR = assay: CCK-8 proliferation, SR; assay type: cell-based, Human; settings: Homo sapiens; Table B6, compounds designed based on the ALK inhibitors; SR cells; read-out: Inhibitory activity (IC50, nM) on tumor cell proliferation, SR
Method in brief: as §1

MCF7 = assay: CCK-8 proliferation, MCF7 (MCF-7); assay type: cell-based; settings: Homo sapiens, MCF7; Table B6, compounds designed based on the ALK inhibitors; MCF-7 cells; read-out: Inhibitory activity (IC50, nM) on tumor cell proliferation, MCF-7
Method in brief: as §1

H2228 = assay: CCK-8 proliferation, NCI-H2228 (H2228); assay type: cell-based; settings: Homo sapiens, NCI-H2228; Table B6, compounds designed based on the ALK inhibitors; H2228 cells; read-out: Inhibitory activity (IC50, nM) on tumor cell proliferation, H2228
Method in brief: as §1

MDA-MB-231 = assay: CCK-8 proliferation, MDA-MB-231; assay type: cell-based; settings: Homo sapiens; Table B6, compounds designed based on the ALK inhibitors; MDA-MB-231 cells; read-out: Inhibitory activity (IC50, nM) on tumor cell proliferation, MDA-MB-231
Experimental: The tumor cells used herein were cultured in a cell culture medium listed in table A1 at 37°C in an incubator with 5% CO2. Prior to experimentation, all cell lines used were correctly identified by STR profiling, and tested negative for mycoplasma contamination using a mycoplasma detection kit through routine screenings. Table A1. Tumor cells and cell culture medium used in the present disclosure
IC50 values of the compounds of the present disclosure (including the compounds in Table 1, and compounds of examples) were measured using the Meilun Cell Counting Kit-8 kit from Dalian Meilun Biotech Co., Ltd. Assay details are as follows: tumor cells were seeded in a 96-well plate at a density listed in Table A2. After 24h, 100 µL of the inoculated cells were treated with 0.5µL of the compounds of the present disclosure (including the compounds in Tables 1 and 2, and compounds of examples) at 10 different successively decreasing concentrations (starting at the highest concentration of 10µM; 5-fold serial dilutions). After the cells were treated with the compounds of the present disclosure for a period of time, the cell viability detection reagent was added to the culture medium for cell viability assessment according to the instructions provided with the CCK-8 kit. […] The growth inhibition of the compounds of the present disclosure on cells was plotted by Prism Graphpad software, and the IC50 values of the compounds of the present disclosure were calculated therefrom. […] Seeding protocol and treatment time for tumor cells

H1975 = assay: CCK-8 proliferation, NCI-H1975 (H1975); assay type: cell-based, Human; settings: Homo sapiens, NCI-H1975; Table B6, compounds designed based on the ALK inhibitors; H1975 cells; read-out: Inhibitory activity (IC50, nM) on tumor cell proliferation, H1975
Method in brief: as §1

ALK = biological target: T1, ALK (Homo sapiens, UniProt Q96SW2+Q9HC35+Q9UM73); assay: Western blot degradation of ALK (H2228 Cell); assay type: cell-based; settings: Table D5
T1 construct: evaluate the effects of the compounds of the present disclosure on the expression of target proteins in cells; endogenous in cells; host or cells: H2228
Method in brief: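 After compound exposure, cells were harvested and lysates run on SDS-PAGE, transferred to nitrocellulose and probed with antibodies. Remaining target (%) was computed from band grayscale relative to an internal control protein and normalised; degradation (%) was 100% minus that.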

T1 sequence (Q9HC35+Q9UM73 fused): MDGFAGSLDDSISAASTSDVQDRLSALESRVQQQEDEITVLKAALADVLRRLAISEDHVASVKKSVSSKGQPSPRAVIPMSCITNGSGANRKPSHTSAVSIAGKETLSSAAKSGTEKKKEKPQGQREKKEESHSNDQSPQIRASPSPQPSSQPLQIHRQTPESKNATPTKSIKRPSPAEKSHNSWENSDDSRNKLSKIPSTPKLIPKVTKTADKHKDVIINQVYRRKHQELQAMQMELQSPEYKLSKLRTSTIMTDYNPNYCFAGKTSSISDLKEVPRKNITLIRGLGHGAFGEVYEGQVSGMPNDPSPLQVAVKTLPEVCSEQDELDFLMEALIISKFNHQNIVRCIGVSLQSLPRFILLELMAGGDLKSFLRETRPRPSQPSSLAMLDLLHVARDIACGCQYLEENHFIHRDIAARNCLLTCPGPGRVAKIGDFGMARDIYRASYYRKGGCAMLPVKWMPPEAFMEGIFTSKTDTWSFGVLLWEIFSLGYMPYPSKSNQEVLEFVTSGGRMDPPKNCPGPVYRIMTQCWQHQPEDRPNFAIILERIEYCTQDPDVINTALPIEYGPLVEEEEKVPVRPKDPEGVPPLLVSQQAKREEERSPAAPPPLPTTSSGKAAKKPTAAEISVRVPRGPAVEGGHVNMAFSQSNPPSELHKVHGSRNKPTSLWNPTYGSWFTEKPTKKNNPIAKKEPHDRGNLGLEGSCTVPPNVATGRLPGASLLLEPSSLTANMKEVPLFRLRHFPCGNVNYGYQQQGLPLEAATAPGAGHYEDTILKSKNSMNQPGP
T1 sequence (Q96SW2 whole entry): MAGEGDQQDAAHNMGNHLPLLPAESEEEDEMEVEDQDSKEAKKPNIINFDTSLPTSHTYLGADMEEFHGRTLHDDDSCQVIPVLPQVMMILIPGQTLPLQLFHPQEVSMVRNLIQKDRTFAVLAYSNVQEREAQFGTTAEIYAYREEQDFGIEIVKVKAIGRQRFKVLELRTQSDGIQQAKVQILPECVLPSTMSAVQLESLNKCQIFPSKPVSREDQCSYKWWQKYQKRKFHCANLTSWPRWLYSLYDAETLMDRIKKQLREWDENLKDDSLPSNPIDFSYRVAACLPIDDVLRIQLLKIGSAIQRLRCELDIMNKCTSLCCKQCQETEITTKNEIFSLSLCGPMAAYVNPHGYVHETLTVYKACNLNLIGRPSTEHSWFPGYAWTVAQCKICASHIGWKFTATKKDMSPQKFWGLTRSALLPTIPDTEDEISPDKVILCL
T1 sequence (Q16531 whole entry partner): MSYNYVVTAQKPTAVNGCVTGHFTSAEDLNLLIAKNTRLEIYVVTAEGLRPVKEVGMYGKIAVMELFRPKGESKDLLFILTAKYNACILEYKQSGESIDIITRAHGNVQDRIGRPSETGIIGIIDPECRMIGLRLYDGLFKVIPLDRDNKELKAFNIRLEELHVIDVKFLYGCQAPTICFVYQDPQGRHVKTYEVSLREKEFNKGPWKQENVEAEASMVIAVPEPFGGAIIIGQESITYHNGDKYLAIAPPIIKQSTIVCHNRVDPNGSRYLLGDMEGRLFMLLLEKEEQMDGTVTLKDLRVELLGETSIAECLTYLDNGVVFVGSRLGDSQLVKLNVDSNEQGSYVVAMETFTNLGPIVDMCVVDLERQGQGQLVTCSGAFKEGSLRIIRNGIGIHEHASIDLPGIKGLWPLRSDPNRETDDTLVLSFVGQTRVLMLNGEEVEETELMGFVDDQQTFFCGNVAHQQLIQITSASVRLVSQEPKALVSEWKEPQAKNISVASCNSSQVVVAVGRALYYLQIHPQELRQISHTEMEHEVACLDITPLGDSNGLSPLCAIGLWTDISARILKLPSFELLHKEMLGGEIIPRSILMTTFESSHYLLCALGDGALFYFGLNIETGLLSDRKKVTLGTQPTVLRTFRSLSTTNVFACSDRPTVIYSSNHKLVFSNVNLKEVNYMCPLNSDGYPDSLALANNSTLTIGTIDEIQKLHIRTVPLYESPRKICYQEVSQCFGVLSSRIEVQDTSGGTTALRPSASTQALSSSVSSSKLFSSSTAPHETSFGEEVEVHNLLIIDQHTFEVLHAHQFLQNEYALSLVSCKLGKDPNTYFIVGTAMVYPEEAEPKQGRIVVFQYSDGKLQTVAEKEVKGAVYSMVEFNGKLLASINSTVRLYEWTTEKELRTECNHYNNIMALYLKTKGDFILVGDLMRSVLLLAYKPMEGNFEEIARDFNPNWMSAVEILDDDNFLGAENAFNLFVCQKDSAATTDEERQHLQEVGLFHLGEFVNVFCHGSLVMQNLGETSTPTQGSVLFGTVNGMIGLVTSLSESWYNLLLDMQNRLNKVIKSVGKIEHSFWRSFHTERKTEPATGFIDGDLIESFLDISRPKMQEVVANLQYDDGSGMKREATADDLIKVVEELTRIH

Structure (SMILES) | IC50 (MM.1S) | IC50 (MCF7) | IC50 (H2228) | IC50 (MDA-MB-231) | IC50 (H1975) | IC50 (SR) | Degradation of substrate protein ALK (substrate protein remaining %) (ALK)
COc1cc(N2CCC(N3CCN(Cc4cccc(N5CCC(=O)NC5=O)c4)CC3)CC2)ccc1Nc1ncc(Cl)c(Nc2ccccc2P(C)(C)=O)n1 [GT-07604, 1-(3-((4-(1-(4-((5-chloro-4-((2-(dimethylphosphoryl)phenyl)amino)pyrimidin-2-yl)amino)-3-methoxyphenyl)piperidin-4-yl)piperazin-1-yl)methyl)phenyl)dihydropyr imidine-2,4(1H,3H)-dione] | 500 to 1000 nM | 100 to 500 nM | 10 to 50 nM | 500 to 1000 nM | 100 to 500 nM | 1 to 10 nM | –
COc1cc(N2CCC(N3CCN(Cc4ccc(N5CCC(=O)NC5=O)cn4)CC3)CC2)ccc1Nc1ncc(Cl)c(Nc2ccccc2P(C)(C)=O)n1 [GT-07606, 1-(6-((4-(1-(4-((5-chloro-4-((2-(dimethylphosphoryl)phenyl)amino)pyrimidin-2-yl)amino)-3-methoxyphenyl)piperidin-4-yl)piperazin-1-yl)methyl)pyridin-3-yl)dihydropyrimidine-2,4(1H,3H)-dione] | 500 to 1000 nM | 100 to 500 nM | 50 to 100 nM | 100 to 500 nM | 100 to 500 nM | 1 to 10 nM | –
CCc1cc2c(cc1N1CCC(N3CCN(Cc4ccc(N5CCC(=O)NC5=O)cc4F)CC3)CC1)C(C)(C)c1[nH]c3cc(C#N)ccc3c1C2=O [GT-07309, 8-(4-(4-(4-(2,4-dioxotetrahydropyrimidin-1(2H)-yl)-2-fluorobenzyl)piperazin-1-yl)piperidin-1-yl)-9-ethyl-6,6-dimethyl-11-oxo-6,11-dihydro-5H-benzo[b]carbazole-3-carbonitrile] | – | – | 100 to 500 nM | 500 to 1000 nM | – | 10 to 50 nM | A (A is defined as 0% ≤ substrate protein remaining % ≤ 80%)
CCc1cc2c(cc1N1CCC(N3CCN(Cc4ccc(N5CCC(=O)NC5=O)c(F)c4)CC3)CC1)C(C)(C)c1[nH]c3cc(C#N)ccc3c1C2=O [GT-07308, 8-(4-(4-(4-(2,4-dioxotetrahydropyrimidin-1(2H)-yl)-3-fluorobenzyl)piperazin-1-yl)piperidin-1-yl)-9-ethyl-6,6-dimethyl-11-oxo-6,11-dihydro-5H-benzo[b]carbazole-3-carbonitrile] | – | 500 to 1000 nM | 10 to 50 nM | 500 to 1000 nM | – | 10 to 50 nM | –
CCc1cc2c(cc1N1CCC(N3CCN(Cc4cccc(N5CCC(=O)NC5=O)c4)CC3)CC1)C(C)(C)c1[nH]c3cc(C#N)ccc3c1C2=O [GT-07310, 8-(4-(4-(3-(2,4-dioxotetrahydropyrimidin-1(2H)-yl)benzyl)piperazin-1-yl)piperidin-1-yl)-9-ethyl-6,6-dimethyl-11-oxo-6,11-dihydro-5H-benzo[b]carbazole-3-carbonitrile] | – | 500 to 1000 nM | 100 to 500 nM | 500 to 1000 nM | – | 1 to 10 nM | A (A is defined as 0% ≤ substrate protein remaining % ≤ 80%)
COc1cc(N2CCC(N3CCN(Cc4ccc(C5CCC(=O)NC5=O)cc4)CC3)CC2)ccc1Nc1ncc(Cl)c(Nc2ccccc2P(C)(C)=O)n1 (stereo not shown) [GT-07602, 3-(4-((4-(1-(4-((5-chloro-4-((2-(dimethylphosphoryl)phenyl)amino)pyrimidin-2-yl)amino)-3-methoxyphenyl)piperidin-4-yl)piperazin-1-yl)methyl)phenyl)piperidine-2,6-dione] | 100 to 500 nM | 100 to 500 nM | 10 to 50 nM | 100 to 500 nM | 100 to 500 nM | 1 to 10 nM | –
COc1cc(N2CCC(N3CCN(Cc4ccc(N5CCC(=O)NC5=O)nc4)CC3)CC2)ccc1Nc1ncc(Cl)c(Nc2ccccc2P(C)(C)=O)n1 [GT-07607, 1-(5-((4-(1-(4-((5-chloro-4-((2-(dimethylphosphoryl)phenyl)amino)pyrimidin-2-yl)amino)-3-methoxyphenyl)piperidin-4-yl)piperazin-1-yl)methyl)pyridin-2-yl)dihydropyrimidine-2,4(1H,3H)-dione] | – | 100 to 500 nM | 10 to 50 nM | 100 to 500 nM | 100 to 500 nM | 1 to 10 nM | –

Second part, led by results:

IC50 (MM.1S) | IC50 (MCF7) | IC50 (H2228) | IC50 (MDA-MB-231) | IC50 (H1975) | Structure (SMILES) | IC50 (SR) | Degradation of substrate protein ALK (substrate protein remaining %) (ALK)
500 to 1000 nM | 100 to 500 nM | 10 to 50 nM | 500 to 1000 nM | 100 to 500 nM | COc1cc(N2CCC(N(C)Cc3cccc(N4CCC(=O)NC4=O)c3)CC2)ccc1Nc1ncc(Cl)c(Nc2ccccc2P(C)(C)=O)n1 [GT-07616, 1-(3-(((1-(4-((5-chloro-4-((2-(dimethylphosphoryl)phenyl)amino)pyrimidin-2-yl)amino)-3-methoxyphenyl)piperidin-4-yl)(methyl)amino)methyl)phenyl)dihydropyrimidine-2,4(1H,3H)-dione] | 1 to 10 nM | –
– | 50 to 100 nM | 100 to 500 nM | 100 to 500 nM | – | COc1cc(N2CCN(Cc3cncc(C4CCC(=O)NC4=O)c3)CC2)ccc1Nc1ncc(Cl)c(Nc2ccccc2P(C)(C)=O)n1 (stereo not shown) [GT-07714, 3-(5-((4-(4-((5-chloro-4-((2-(dimethylphosphoryl)phenyl)amino)pyrimidin-2-yl)amino)-3-methoxyphenyl)piperazin-1-yl)methyl)pyridin-3-yl)piperidine-2,6-dione] | 10 to 50 nM | A (A is defined as 0% ≤ substrate protein remaining % ≤ 80%)
– | – | 50 to 100 nM | 500 to 1000 nM | 100 to 500 nM | COc1cc(N2CCC(N3CCN(Cc4ccnc(C5CCC(=O)NC5=O)c4)CC3)CC2)ccc1Nc1ncc(Cl)c(Nc2ccccc2P(C)(C)=O)n1 (stereo not shown) [GT-07612, 3-(4-((4-(1-(4-((5-chloro-4-((2-(dimethylphosphoryl)phenyl)amino)pyrimidin-2-yl)amino)-3-methoxyphenyl)piperidin-4-yl)piperazin-1-yl)methyl)pyridin-2-yl)piperidine-2,6-dione] | 1 to 10 nM | A (A is defined as 0% ≤ substrate protein remaining % ≤ 80%)
1000 to 5000 nM | 1000 to 5000 nM | > 10000 nM | 1000 to 5000 nM | > 10000 nM | COc1cc(N2CCC(N3CCN(C)CC3)CC2)ccc1Nc1ncc(Cl)c(Nc2ccccc2P(C)(C)=O)n1 [brigatinib, reference compound] | 100 to 500 nM | –
500 to 1000 nM | 500 to 1000 nM | 100 to 500 nM | 500 to 1000 nM | 500 to 1000 nM | CCc1cc2c(cc1N1CCC(N3CCN(Cc4cncc(N5CCC(=O)NC5=O)c4)CC3)CC1)C(C)(C)c1[nH]c3cc(C#N)ccc3c1C2=O [GT-07702, 8-(4-(4-((5-(2,4-dioxotetrahydropyrimidin-1(2H)-yl)pyridin-3-yl)methyl)piperazin-1-yl)piperidin-1-yl)-9-ethyl-6,6-dimethyl-11-oxo-6,11-dihydro-5H-benzo[b]carbazole-3-carbonitrile] | 1 to 10 nM | –
100 to 500 nM | 100 to 500 nM | 100 to 500 nM | 500 to 1000 nM | 500 to 1000 nM | COc1cc(N2CCC(N(C)Cc3cncc(N4CCC(=O)NC4=O)c3)CC2)ccc1Nc1ncc(Cl)c(Nc2ccccc2P(C)(C)=O)n1 [GT-07695, 1-(5-(((1-(4-((5-chloro-4-((2-(dimethylphosphoryl)phenyl)amino)pyrimidin-2-yl)amino)-3-methoxyphenyl)piperidin-4-yl)(methyl)amino)methyl)pyridin-3-yl)dihydropyrimidine-2,4(1H,3H)-dione] | 10 to 50 nM | –
1000 to 5000 nM | 5000 to 10000 nM | 5000 to 10000 nM | 1000 to 5000 nM | 1000 to 5000 nM | CCc1cc2c(cc1N1CCC(N3CCOCC3)CC1)C(C)(C)c1[nH]c3cc(C#N)ccc3c1C2=O [alectinib, reference compound] | 10 to 50 nM | –
